From PubChem BioAssay (NCI)
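In this assay, cells in 96-well plates receive the compound at five concentrations for 48 hours. Endpoints are linearly interpolated between the surrounding concentrations. At the TGI there is no net growth.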 Where a SMILES comes first, the peptide text is derived from it. Bridges are numbered along the chain shown (N, C = ends). [ ]: non-standard residue; d: D form. The star is where a group is joined. Cya = N[CH](CS(=O)(=O)O)C(=O)O; X49 = CC(C)CCCCCCCC(O)CC(=O)*; GABA = NCCCC(=O)O

Key:
Experiment in all cases: NCI anticancer screen, dose series, 48 h
[1] = test system: HOP-92 NSCLC
[2] = test system: OVCAR-8 ovarian
[3] = test system: OVCAR-5 ovarian
[4] = test system: A549 NSCLC
[5] = test system: M14 melanoma
[6] = test system: NCI/ADR-RES ovarian
[7] = test system: RPMI-8226 leukemia
[8] = test system: A498 renal
[9] = test system: SK-MEL-28 melanoma
[10] = test system: HCC-2998 colon
[11] = test system: HCT-15 colon
[12] = test system: SF-539 CNS
[13] = test system: IGROV1 ovarian
[14] = test system: MOLT-4 leukemia
[15] = test system: UACC-62 melanoma
[16] = test system: KM12 colon
[17] = test system: T-47D breast
[18] = test system: UO-31 renal
[19] = test system: SNB-75 CNS
[20] = test system: TK-10 renal
[21] = test system: SK-MEL-5 melanoma
[22] = test system: SN12C renal
[23] = test system: DU-145 prostate
[24] = test system: HOP-62 NSCLC
[25] = test system: OVCAR-4 ovarian
[26] = test system: NCI-H522 lung
[27] = test system: U251 CNS
[28] = test system: EKVX NSCLC
[29] = test system: HCT-116 colon
[30] = test system: K-562 leukemia
[31] = test system: SK-MEL-2 melanoma
[32] = test system: CCRF-CEM leukemia
[33] = test system: SF-268 CNS
[34] = test system: SR leukemia
[35] = test system: CAKI-1 renal
[36] = test system: NCI-H460 lung
[37] = test system: MDA-N
[38] = test system: MDA-MB-435
[39] = test system: NCI-H226 lung
[40] = test system: MDA-MB-231 breast
[41] = test system: HT29 colon
[42] = test system: NCI-H23 lung
[43] = test system: RXF 393 renal
[44] = test system: UACC-257 melanoma
[45] = test system: ACHN renal
[46] = test system: SK-OV-3 ovarian
[47] = test system: MALME-3M melanoma
[48] = test system: SNB-19 CNS
[49] = test system: HS 578T breast
[50] = test system: MCF7 breast
[51] = test system: 786-0 renal
[52] = test system: OVCAR-3 ovarian
[53] = test system: COLO 205 colon
[54] = test system: SF-295 CNS
[55] = test system: PC-3 prostate
[56] = test system: BT-549 breast
[57] = test system: SW-620 colon
[58] = test system: HL-60(TB) leukemia
[59] = test system: LOX IMVI melanoma

## Cc1c(C)c(S(=O)(=O)N(CCCCCCN)OCCCN)c(C)c2c1OC(C)(C)CC2
[1]
  TGI: 15.2 µM
[2]
  TGI: 26 µM
[3]
  TGI: > 51.4 µM
[4]
  TGI: 29 µM
[5]
  TGI: > 64.1 µM
[6]
  TGI: 33.2 µM
[7]
  TGI: 7.68 µM
[8]
  TGI: 40.3 µM
[9]
  TGI: 71.9 µM
[10]
  TGI: 3.8 µM
[11]
  TGI: 34.7 µM
[12]
  TGI: > 100 µM
[13]
  TGI: 4.62 µM
[14]
  TGI: 10.4 µM
[15]
  TGI: 30.6 µM
[16]
  TGI: 3.75 µM
[17]
  TGI: > 47.1 µM
[18]
  TGI: 28.6 µM
[19]
  TGI: 11 µM
[20]
  TGI: 32.8 µM
[21]
  TGI: > 35.6 µM
[22]
  TGI: > 100 µM
[23]
  TGI: 64 µM
[24]
  TGI: 15.9 µM
[25]
  TGI: 8.37 µM
[26]
  TGI: 9.95 µM
[27]
  TGI: > 20.7 µM
[28]
  TGI: 19.8 µM
[29]
  TGI: 4.63 µM
[30]
  TGI: > 28.3 µM
[31]
  TGI: 6.13 µM
[32]
  TGI: > 20.9 µM
[33]
  TGI: 22.5 µM
[34]
  TGI: > 31.6 µM
[35]
  TGI: > 53.1 µM
[36]
  TGI: 8.45 µM
[37]
  TGI: 30.9 µM
[38]
  TGI: 15 µM
[39]
  TGI: 27.5 µM
[40]
  TGI: 20.1 µM
[41]
  TGI: 24.9 µM
[42]
  TGI: 24 µM
[43]
  TGI: 15.6 µM
[44]
  TGI: 29.7 µM
[45]
  TGI: 25.6 µM
[46]
  TGI: 25.2 µM
[47]
  TGI: 4.34 µM
[48]
  TGI: 12.9 µM
[49]
  TGI: 13 µM
[50]
  TGI: > 100 µM
[51]
  TGI: 11.9 µM
[52]
  TGI: 7.53 µM
[53]
  TGI: > 26.5 µM
[54]
  TGI: 22.6 µM
[55]
  TGI: 17.3 µM
[56]
  TGI: 28.6 µM

## CC(C)CCCCCCCC(O)CC(=O)NC(CS(=O)(=O)O)C(=O)NC(CC(C)C)C(=O)NCCCC(=O)NC(Cc1cnc[nH]1)C(=O)NC(C)C(=O)NC1C(=O)NC(C(C)O)C(=O)NC(Cc2cnc[nH]2)C(=O)NC(C)C(=O)NC(C(C)O)C(=O)OC1C (stereo not drawn) (X49-[Cya]L[GABA]HATTHAT; ester 6-C; configuration not given here)
[1]
  TGI: > 25 µM
[2]
  TGI: > 25 µM
[3]
  TGI: > 25 µM
[4]
  TGI: > 25 µM
[5]
  TGI: > 25 µM
[6]
  TGI: > 25 µM
[7]
  TGI: > 25 µM
[8]
  TGI: > 25 µM
[9]
  TGI: > 25 µM
[10]
  TGI: > 25 µM
[11]
  TGI: > 25 µM
[57]
  TGI: > 25 µM
[12]
  TGI: > 25 µM
[13]
  TGI: > 25 µM
[14]
  TGI: > 25 µM
[15]
  TGI: > 25 µM
[16]
  TGI: > 25 µM
[17]
  TGI: > 25 µM
[18]
  TGI: > 25 µM
[19]
  TGI: > 25 µM
[20]
  TGI: > 25 µM
[21]
  TGI: > 25 µM
[22]
  TGI: > 25 µM
[23]
  TGI: > 25 µM
[24]
  TGI: > 25 µM
[25]
  TGI: > 25 µM
[26]
  TGI: > 25 µM
[27]
  TGI: > 25 µM
[28]
  TGI: > 25 µM
[29]
  TGI: > 25 µM
[30]
  TGI: > 25 µM
[31]
  TGI: > 25 µM
[32]
  TGI: > 25 µM
[34]
  TGI: > 25 µM
[35]
  TGI: > 25 µM
[36]
  TGI: > 25 µM
[37]
  TGI: > 25 µM
[38]
  TGI: > 25 µM
[39]
  TGI: > 25 µM
[40]
  TGI: > 25 µM
[41]
  TGI: > 25 µM
[42]
  TGI: > 25 µM
[44]
  TGI: > 25 µM
[45]
  TGI: > 25 µM
[58]
  TGI: > 25 µM
[46]
  TGI: > 25 µM
[47]
  TGI: > 25 µM
[48]
  TGI: > 25 µM
[49]
  TGI: > 25 µM
[50]
  TGI: > 25 µM
[51]
  TGI: > 25 µM
[52]
  TGI: > 25 µM
[53]
  TGI: > 25 µM
[54]
  TGI: > 25 µM
[55]
  TGI: > 25 µM
[59]
  TGI: > 25 µM
[56]
  TGI: > 25 µM
